Laboratory results reported in publication PMC6932632 (Biochemistry, 2019).

Target: T1, p38γ (Homo sapiens, UniProt P53778)
T1 sequence (P53778 1-367): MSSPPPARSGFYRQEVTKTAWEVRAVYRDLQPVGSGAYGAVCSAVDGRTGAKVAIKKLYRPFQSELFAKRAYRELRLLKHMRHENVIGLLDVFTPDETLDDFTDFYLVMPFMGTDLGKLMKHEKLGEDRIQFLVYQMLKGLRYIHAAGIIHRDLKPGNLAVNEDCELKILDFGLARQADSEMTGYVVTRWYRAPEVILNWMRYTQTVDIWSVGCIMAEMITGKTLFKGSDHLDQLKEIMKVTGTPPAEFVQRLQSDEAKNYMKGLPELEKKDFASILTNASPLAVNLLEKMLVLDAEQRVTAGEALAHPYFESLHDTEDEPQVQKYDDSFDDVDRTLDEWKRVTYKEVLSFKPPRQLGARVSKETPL
Test: NMR titration
Format: binding

Work on `Nc1ncnc2c1ncn2[C@@H]1O[C@H](COP(=O)(O)OP(=O)(O)OP(=O)(O)O)[C@@H](O)[C@H]1O` [ATP] yielded a Kd of 770 µM.
